biological target: T1, human mGlu4 receptor (Homo sapiens, UniProt Q14833); test: Ca2+ mobilization in vitro assay on recombinant human mGlu4 expressed in HEK293 cells; format: cell-based; details: HEK-293 cells stably expressing human mGlu4; L-AP4 added at EC20; Fluo-4 fluorescence; read-out: EC50 (uM) mGlu4 PAM
T1 construct: expressed in transfected cells; host or cells: HEK-293 (monoclonal, stably transfected)
Protocol: Determination of EC50 Values Using a Ca2+ Mobilization In Vitro Assay on Recombinant Human mGlu4 Expressed in HEK293 Cells:
A monoclonal HEK-293 cell line stably transfected with a cDNA encoding for the human mGlu4 receptor was generated; for the work with mGlu4 Positive Allosteric Modulators (PAMs), a cell line with low receptor expression levels and low constitutive receptor activity was selected to allow the differentiation of agonistic versus PAM activity. Cells were cultured according to standard protocols (Freshney, 2000) in Dulbecco's Modified Eagle Medium with high glucose supplemented with 1 mM glutamine, 10% (vol/vol) heat-inactivated bovine calf serum, Penicillin/Streptomycin, 50 μg/ml hygromycin and 15 μg/ml blasticidin (all cell culture reagents and antibiotics from Invitrogen, Basel, Switzerland).
About 24 hrs before an experiment, 5×10^4 cells/well were seeded in poly-D-lysine coated, black/clear-bottomed 96-well plates. The cells were loaded with 2.5 μM Fluo-4 AM in loading buffer (1×HBSS, 20 mM HEPES) for 1 hr at 37° C. and washed five times with loading buffer. The cells were transferred into a Functional Drug Screening System 7000 (Hamamatsu, Paris, France), and 11 half logarithmic serial dilutions of test compound at 37° C. were added and the cells were incubated for 10-30 min. with on-line recording of fluorescence. Following this pre-incubation step, the agonist (2S)-2-amino-4-phosphonobutanoic acid (L-AP4) was added to the cells at a concentration corresponding to EC20 with on-line recording of fluorescence; in order to account for day-to-day variations in the responsiveness of cells, the EC20 of L-AP4 was determined immediately ahead of each experiment by recording of a full dose-response curve of L-AP4.
Responses were measured as peak increase in fluorescence minus basal (i.e. fluorescence without addition of L-AP4), normalized to the maximal stimulatory effect obtained with saturating concentrations of L-AP4. Graphs were plotted with the % maximal stimulatory using XLfit, a curve fitting program that iteratively plots the data using Levenburg Marquardt algorithm. The single site competition analysis equation used was y=A+((B−A)/(1+((x/C)D))), where y is the % maximal stimulatory effect, A is the minimum y, B is the maximum y, C is the EC50, x is the log 10 of the concentration of the competing compound and D is the slope of the curve (the Hill Coefficient). From these curves the EC50 (drug concentration at which 50% of the maximal receptor activation was achieved), the Hill coefficient as well as the maximal response in % of the maximal stimulatory effect obtained with saturating concentrations of L-AP4 were calculated (see Fig. 1).
A depression of the signal observed after addition of the EC20 concentration of L-AP4 was indicative of an inhibitory activity of the test compound.

T1 sequence (Q14833 33-912): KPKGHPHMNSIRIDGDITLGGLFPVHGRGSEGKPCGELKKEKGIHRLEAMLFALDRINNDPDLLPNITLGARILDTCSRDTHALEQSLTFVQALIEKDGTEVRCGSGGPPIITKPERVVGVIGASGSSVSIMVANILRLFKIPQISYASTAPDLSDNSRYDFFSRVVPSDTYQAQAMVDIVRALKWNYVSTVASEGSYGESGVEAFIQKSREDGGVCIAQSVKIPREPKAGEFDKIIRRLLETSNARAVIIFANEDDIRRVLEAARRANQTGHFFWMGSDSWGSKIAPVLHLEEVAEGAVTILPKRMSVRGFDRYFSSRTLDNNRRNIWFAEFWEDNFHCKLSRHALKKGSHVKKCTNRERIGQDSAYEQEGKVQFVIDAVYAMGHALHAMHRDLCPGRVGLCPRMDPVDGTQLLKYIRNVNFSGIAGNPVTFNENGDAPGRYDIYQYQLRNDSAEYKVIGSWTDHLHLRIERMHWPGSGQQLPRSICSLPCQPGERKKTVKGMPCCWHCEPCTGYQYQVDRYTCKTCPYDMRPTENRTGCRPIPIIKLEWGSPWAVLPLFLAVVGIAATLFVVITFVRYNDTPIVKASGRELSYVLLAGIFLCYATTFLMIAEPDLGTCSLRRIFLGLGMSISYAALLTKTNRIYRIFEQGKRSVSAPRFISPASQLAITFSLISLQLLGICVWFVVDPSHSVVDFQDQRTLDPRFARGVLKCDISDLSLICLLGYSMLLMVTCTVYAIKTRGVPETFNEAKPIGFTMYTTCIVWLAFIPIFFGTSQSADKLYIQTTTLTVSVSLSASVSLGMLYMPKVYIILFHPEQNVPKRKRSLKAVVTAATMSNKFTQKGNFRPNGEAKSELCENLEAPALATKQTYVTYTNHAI

Row | Molecule | EC50 [µM]
1 | 7′-[2,6-difluoro-4-[2-(3-pyridyl)ethynyl]phenyl]-3′-(2-methylpyrazol-3-yl)spiro[cyclopropane-1,5′-imidazo[1,2-a]imidazole]-6′-one [Example 30] | 0.143
2 | CC(F)(F)c1ccc(-c2cc(F)c(N3C(=O)C4(CC4)n4ccnc43)c(F)c2)cc1 [Example 6, 1′-(4′-(1,1-difluoroethyl)-3,5-difluoro-[1,1′-biphenyl]-4-yl)spiro[cyclopropane-1,3′-imidazo[1,2-a]imidazol]-2′(1′H)-one] | 0.383
3 | O=C(Nc1cc(F)c(N2C(=O)C3(CC3)n3ccnc32)c(F)c1)c1ccccn1 [Example 7, N-[3,5-difluoro-4-(6′-oxospiro[cyclopropane-1,5′-imidazo[1,2-a]imidazole]-7′-yl)phenyl]pyridine-2-carboxamide] | 0.541
4 | O=C(Nc1cc(F)c(N2C(=O)C3(CC3)n3c(-c4ccccn4)cnc32)c(F)c1)c1ccccn1 [Example 11, N-[3,5-difluoro-4-[6′-oxo-3′-(2-pyridyl)spiro[cyclopropane-1,5′-imidazo[1,2-a]imidazole]-7′-yl]phenyl]pyridine-2-carboxamide] | 0.059
5 | O=C1N(c2c(F)cc(C#Cc3ccccc3)cc2F)c2ncc(-c3ccccn3)n2C12CC2 [Example 12, 3-[2,6-Difluoro-4-(2-phenylethynyl)phenyl]-6-(pyridin-2-yl)-2,3-dihydrospiro[[1,3]diazolo[1,2-a]imidazole-1,1′-cyclopropane]-2-one] | 0.076
6 | O=C(Nc1cc(F)c(N2C(=O)C3(CC3)n3c(-c4ccncn4)cnc32)c(F)c1)c1ccccn1 [Example 13, N-[3,5-difluoro-4-(6′-oxo-3′-pyrimidin-4-yl-spiro[cyclopropane-1,5′-imidazo[1,2-a]imidazole]-7′-yl)phenyl]pyridine-2-carboxamide] | 0.077
7 | CC(C)(C)c1cnn(-c2cc(F)c(N3C(=O)C4(CC4)n4c(-c5ccncn5)cnc43)c(F)c2)c1 [Example 15, 7′-[4-(4-tert-butylpyrazol-1-yl)-2,6-difluoro-phenyl]-3′-pyrimidin-4-yl-spiro[cyclopropane-1,5′-imidazo[1,2-a]imidazole]-6′-one] | 0.232
8 | O=C1N(c2c(F)cc(C#Cc3cccnc3)cc2F)c2ncc(-c3ccncn3)n2C12CC2 [Example 16, 7′-[2,6-difluoro-4-[2-(3-pyridyl)ethynyl]phenyl]-3′-pyrimidin-4-yl-spiro[cyclopropane-1,5′-imidazo[1,2-a]imidazole]-6′-one] | 0.237
9 | O=C1N(c2c(F)cc(C#Cc3cccnc3)cc2F)c2ncc(-c3ccccn3)n2C12CC2 [Example 17, 7′-[2,6-difluoro-4-[2-(3-pyridyl)ethynyl]phenyl]-3′-(2-pyridyl)spiro[cyclopropane-1,5′-imidazo[1,2-a]imidazole]-6′-one] | 0.283
10 | CC(C)(C)c1cnn(-c2cc(F)c(N3C(=O)C4(CC4)n4c(-c5ccccn5)cnc43)c(F)c2)c1 [Example 19, 7′-[4-(4-tert-butylpyrazol-1-yl)-2,6-difluoro-phenyl]-3′-(2-pyridyl)spiro[cyclopropane-1,5′-imidazo[1,2-a]imidazole]-6′-one] | 0.426
11 | Cn1cnc(-c2cnc3n2C2(CC2)C(=O)N3c2c(F)cc(C#Cc3cccnc3)cc2F)c1 [Example 20, 7′-[2,6-difluoro-4-[2-(3-pyridyl)ethynyl]phenyl]-3′-(1-methylimidazol-4-yl)spiro[cyclopropane-1,5′-imidazo[1,2-a]imidazole]-6′-one] | 0.442
12 | O=C1N(c2c(F)cc(-n3cc(C(F)(F)F)cn3)cc2F)c2ncc(-c3ccccn3)n2C12CC2 [Example 21, 7′-[2,6-difluoro-4-[4-(trifluoromethyl)pyrazol-1-yl]phenyl]-3′-(2-pyridyl)spiro[cyclopropane-1,5′-imidazo[1,2-a]imidazole]-6′-one] | 0.596
13 | O=C(Nc1ccccn1)c1cc(F)c(N2C(=O)C3(CC3)n3c(-c4ccccn4)cnc32)c(F)c1 [Example 22, 3,5-difluoro-4-[6′-oxo-3′-(2-pyridyl)spiro[cyclopropane-1,5′-imidazo[1,2-a]imidazole]-7′-yl]-N-(2-pyridyl)benzamide] | 0.61
14 | O=C1N(c2c(F)cc(-n3cc(C(F)(F)F)cn3)cc2F)c2ncc(-c3ccncn3)n2C12CC2 [Example 23, 7′-[2,6-difluoro-4-[4-(trifluoromethyl)pyrazol-1-yl]phenyl]-3′-pyrimidin-4-yl-spiro[cyclopropane-1,5′-imidazo[1,2-a]imidazole]-6′-one] | 0.755
15 | Cn1ccc(-c2cnc3n2C2(CC2)C(=O)N3c2c(F)cc(-c3ccc(C(C)(F)F)cc3)cc2F)n1 [Example 25, 7′-[4-[4-(1,1-difluoroethyl)phenyl]-2,6-difluoro-phenyl]-3′-(1-methylpyrazol-3-yl)spiro[cyclopropane-1,5′-imidazo[1,2-a]imidazole]-6′-one] | 0.1

Other lines, results leading:

Row | EC50 [µM] | Molecule
16 | 0.453 | CC1C(=O)N(c2c(F)cc(C#Cc3ccccc3)cc2F)c2nccn21 (single isomer, unassigned; enantiomer 1) [Example 3, 1-(2,6-difluoro-4-(phenylethynyl)phenyl)-3-methyl-1H-imidazo[1,2-a]imidazol-2(3H)-one (enantiomer 1)]
17 | 0.758 | CC1C(=O)N(c2c(F)cc(C#Cc3ccccc3)cc2F)c2nccn21 (single isomer, unassigned; enantiomer 2) [Example 4, 1-(2,6-difluoro-4-(phenylethynyl)phenyl)-3-methyl-1H-imidazo[1,2-a]imidazol-2(3H)-one (enantiomer 2)]
18 | 0.178 | O=C1N(c2c(F)cc(C#Cc3ccccc3)cc2F)c2nccn2C12CC2 [Example 1, 3-[2,6-Difluoro-4-(2-phenylethynyl)phenyl]-2,3-dihydrospiro[[1,3]diazolo[1,2-a]imidazole-1,1′-cyclopropane]-2-one]
19 | 0.359 | CC1(C)C(=O)N(c2c(F)cc(C#Cc3ccccc3)cc2Cl)c2nccn21 [Example 2, 1-(2-chloro-6-fluoro-4-(phenylethynyl)phenyl)-3,3-dimethyl-1H-imidazo[1,2-a]imidazol-2(3H)-one]
20 | 0.468 | CC1(C)C(=O)N(c2c(F)cc(C#Cc3ccccc3)cc2F)c2nccn21 [Example 5, 1-(2,6-difluoro-4-(phenylethynyl)phenyl)-3,3-dimethyl-1H-imidazo[1,2-a]imidazol-2(3H)-one]
21 | 0.418 | CC1(C)C(=O)N(c2c(F)cc(C#Cc3ccccc3)cc2F)c2ncc(I)n21 [Example 8, 1-(2,6-difluoro-4-(phenylethynyl)phenyl)-5-iodo-3,3-dimethyl-1H-imidazo[1,2-a]imidazol-2(3H)-one]
22 | 0.245 | O=C1N(c2c(F)cc(C#Cc3ccccc3)cc2F)c2ncc(I)n2C12CC2 [Example 9, 3-[2,6-difluoro-4-(2-phenylethynyl)phenyl]-6-iodo-2,3-dihydrospiro[[1,3]diazolo[1,2-a]imidazole-1,1′-cyclopropane]-2-one]
23 | 0.371 | CC1(C)C(=O)N(c2c(F)cc(C#Cc3ccccc3)cc2Cl)c2ncc(I)n21 [Example 10, 1-(2-chloro-6-fluoro-4-(phenylethynyl)phenyl)-5-iodo-3,3-dimethyl-1H-imidazo[1,2-a]imidazol-2(3H)-one]
24 | 0.12 | Cn1cnc(-c2cnc3n2C2(CC2)C(=O)N3c2c(F)cc(C#Cc3ccccc3)cc2F)c1 [Example 14, 7′-[2,6-difluoro-4-(2-phenylethynyl)phenyl]-3′-(1-methylimidazol-4-yl)spiro[cyclopropane-1,5′-imidazo[1,2-a]imidazole]-6′-one]
25 | 0.361 | O=C1N(c2c(F)cc(C#Cc3ccccc3)cc2F)c2ncc(-c3ccncn3)n2C12CC2 [Example 18, 3′-[2,6-Difluoro-4-(2-phenylethynyl)phenyl]-6′-(pyrimidin-4-yl)-2′,3′-dihydrospiro[cyclopropane-1,1′-imidazo-[1,2-a][1,3]diazole]-2′-one]
26 | 0.073 | O=C1N(c2c(F)cc(C#Cc3ccccc3)cc2F)c2ncc(-c3ccccc3)n2C12CC2 [Example 24, 3-[2,6-Difluoro-4-(2-phenylethynyl)phenyl]-6-phenyl-2,3-dihydrospiro[[1,3]diazolo[1,2-a]imidazole-1,1′-cyclopropane]-2-one]
